We go through 73 molecules from US8476197B2, “Aminopropenoates as fungicides” (priority 2009, dated 2013).

Marks after values point to notes of the source that are not given here.

For the first series the following is noted: pH 2.3.
The term Log P denotes a log measure of how a compound divides between an organic and an aqueous phase. Low values mean a more hydrophilic compound, high ones a more lipophilic compound. As to `CCOC(=O)C(C#N)=C(NC(C)c1nccs1)c1cccnc1OCC` (racemic) [Compound 148], the “Log P” value came to 2.92.
Still for that read-out and setting: the value for `CC(C)C(C)NC(=C(C#N)C(=O)NC1CS(=O)(=O)C1)c1cccnc1Cl` (stereo not shown) [Compound 1469] was 2.28.
On the same count and under the same terms, next, `CCN(C)C(=O)C(C#N)=C(NC(C)C(C)C)c1cccnc1Cl` (stereo not shown) [Compound 1282]: 2.91.

The same series, now with this note: pH 2.7.
`CC#CC(C)NC(=C(C#N)C(=O)NCC)c1cccnc1Cl` (stereo not shown) [Compound 1119]: the “Log P” value is 2.5^[a].
With `CCOC(=O)C(C#N)=C(NC(C)c1nccs1)c1cccnc1Cl` (stereo not shown) [Compound 6], the “Log P” value amounted to 2.58.
Regarding `CCOCC(NC(=C(C#N)C(=O)OC)c1cccnc1Cl)C(C)C` (stereo not shown) [Compound 627], the “Log P” value was 3.11^[a].
On the same count and under the same terms, next, `CCOC(=O)C(C#N)=C(NCC1(C)CCCO1)c1cn(C)nc1C(F)F` (stereo not shown) [Compound 1340]: 2.54^[a].
For `CCOC(=O)C(C#N)=C(NC(C)c1nc(C)cs1)c1sccc1Br` (single isomer, unassigned) [Compound 167], the “Log P” value was 3.44^[a].
Still for that read-out and setting: next, `CCOC(=O)C(C#N)=C(NC(C)(C)C(=O)OC)c1cn(C)nc1C(F)F` [Compound 696]: 2.51^[a]; `CCOC(=O)C(C#N)=C(NC(C)c1ccccn1)c1cccnc1C(F)(F)F` (racemic) [Compound 233]: 2.88^[a]; `CC#CC(C)NC(=C(C#N)C(=O)OCC)c1ccnc(Cl)c1Cl` (racemic) [Compound 1386]: 3.44^[a].
On the same count and under the same terms, next, `CCOC(=O)C(C#N)=C(NC(C)C(C)C)c1ccncc1Br` (stereo not shown) [Compound 996]: 3.33^[a]; `CCOC(=O)C(C#N)=C(Nc1ccccc1SC)c1sc(Cl)nc1Cl` [Compound 527]: 4.14^[a]; `CCOC(=O)C(C#N)=C(NC1CCC1)c1cnc(Cl)cc1Cl` [Compound 796]: 3.55^[a].
On the same count and under the same terms, the value for `CCOC(=O)C(C#N)=C(NC(C)c1ccccn1)c1sccc1C(F)(F)F` (stereo not shown) [Compound 103] was 3.27^[a]; that for `CCCC(C)NC(=C(C#N)C(=O)OC)c1sc(C)nc1C(F)(F)F` (stereo not shown) [Compound 866] was 3.61^[a]; that for `CCOC(=O)C(C#N)=C(NC(C)c1ccccn1)c1ccnn1C(F)F` (stereo not shown) [Compound 1646] was 2.55^[a].
As for `CCOC(=O)C(C#N)=C(NC(C)c1ccc(Cl)cc1)c1cc(Cl)sc1Cl` (racemic) [Compound 499], the “Log P” value is 4.96^[a].
Turning to `CCOC(=O)C(C#N)=C(NC(C)C(C)C)c1sccc1C(F)(F)F` (stereo not shown) [Compound 944], the “Log P” value is 4.21^[a].
Still for that read-out and setting: next, `CCOC(=O)C(C#N)=C(NC(C)c1cccc(C)n1)c1cccnc1Cl` (stereo not shown) [Compound 1440]: 2.56^[a]; `CCOC(=O)C(C#N)=C(NC(C)C1CCCO1)c1sccc1C(F)(F)F` (mixture of isomers) [Compound 172]: 3.55^[a].
On the same count and under the same terms, the value for `CCOC(=O)C(C#N)=C(NC(C)C1CC1)c1nc(Cl)ccc1Cl` (stereo not shown) [Compound 888] was 3.73^[a].
On the same count and under the same terms, the value for `CCOC(=O)C(C#N)=C(NC(C)COC)c1cn(C)nc1C(F)F` (stereo not shown) [Compound 685] was 2.41^[a]; that for `CCOC(=O)C(C#N)=C(Nc1ccccc1OC(C)C)c1ccsc1Br` [Compound 523] was 4.46^[a]; that for `CCOC(=O)C(C#N)=C(NC(C)(C)C)c1cn(C)nc1C(F)F` [Compound 1418] was 2.66^[a].
On to `CCOC(=O)C(C#N)=C(NC(C)C(F)(F)F)c1cn(C)nc1OC` (racemic) [Compound 808], for which the “Log P” value is 2.82^[a].
`CCOC(=O)C(C#N)=C(NCC(C)N)c1c(C)nn(C)c1Cl` (stereo not shown) [Compound 603]: the “Log P” value was 0.96^[a].
Still for that read-out and setting: the value for `CCCC(C#N)NC(=C(C#N)C(=O)OCC)c1cn(C)nc1C(F)F` (racemic) [Compound 1250] was 2.77^[a]; that for `CCOC(=O)C(C#N)=C(NC(C)C1CCC1)c1c(CC)nn(C)c1Cl` (stereo not shown) [Compound 1648] was 3.94^[a]; that for `CCOC(=O)C(C#N)=C(NCc1ccc2ccccc2n1)c1cccnc1Cl` [Compound 323] was 3.13^[a].
On the same count and under the same terms, next, `CCOC(=O)C(C#N)=C(NC(c1ccc(Cl)cc1)C(F)(F)F)c1cn(C)nc1C(F)F` (stereo not shown) [Compound 1222]: 4.01^[a]; `CCOC(=O)C(C#N)=C(NC(C)c1nc(C)c(C)s1)c1nsc(Cl)c1Cl` (racemic) [Compound 53]: 4.01^[a]; `COC(=O)C(C#N)=C(NC(C)CN(C)C)c1cn(C)nc1C(F)F` (racemic) [Compound 587]: 0.82^[a].
Still for that read-out and setting: the value for `CCOC(=O)C(C#N)=C(NC(C)(C)C(=O)OC)c1sc(C)nc1C(F)(F)F` [Compound 697] was 3.23^[a]; that for `CCOC(=O)C(C#N)=C(NC(C(=O)OC)C(C)C)c1sc(Cl)nc1Cl` (stereo not shown) [Compound 710] was 3.82^[a].
In the case of `CCOC(=O)C(C#N)=C(NC(C)C1CCCCC1)c1cn(C)nc1C(F)F` (stereo not shown) [Compound 872], the “Log P” value is 3.92^[a].
On to `CCOC(=O)C(C#N)=C(NC(C)c1ccccn1)c1c(C(F)(F)F)nn(C)c1Cl` (stereo not shown) [Compound 314], for which the “Log P” value was 3.24^[a].
Same read-out and setting: next, `CCOCC(C)NC(=C(C#N)C(=O)OCC)c1cc(C)oc1C` (stereo not shown) [Compound 617]: 3.42^[a]; `CCOC(=O)C(C#N)=C(NC1CCc2ccccc21)c1cn(C)nc1C(F)F` (stereo not shown) [Compound 1079]: 3.42^[a].
The same measure, in the same setting: next, `CCOC(=O)C(C#N)=C(NCc1ccccn1)c1c(C(F)F)nn(C)c1Cl` [Compound 155]: 2.37^[a].
The same measure, in the same setting: next, `COC(=O)C(C#N)=C(NC(C)(C)C(=O)OC)c1sc(C)nc1C(F)(F)F` [Compound 695]: 2.9^[a]; `CCC(CC)NC(=C(C#N)C(=O)OC)c1cccnc1Cl` [Compound 756]: 2.76^[a]; `CNN(C)C(=O)C(C#N)=C(NC(C)C(C)C)c1cccnc1Cl` (stereo not shown) [Compound 1628]: 1.3^[a].
For `CCOC(=O)C(C#N)=C(NC(C)c1nccs1)c1ccnc(C)c1Cl` (stereo not shown) [Compound 1285], the “Log P” value is 2.57^[a].
For the molecule `CCOC(=O)C(C#N)=C(NC(C)c1ccc(C(F)(F)F)cn1)c1cccnc1Cl` (mixture of isomers) [Compound 285], the “Log P” value was 3.5^[a].
On the same count and under the same terms, next, `CCOC(=O)C(C#N)=C(NC(C)Cc1ccccn1)c1cccnc1Cl` (mixture of isomers) [Compound 295]: 1.82^[a]; `CCOC(=O)C(C#N)=C(NC(C)CC(C)C)c1sccc1C(F)(F)F` (racemic) [Compound 781]: 4.54^[a]; `CC#CC1(NC(=C(C#N)C(=O)OCC)c2cccnc2Cl)CCCCC1` [Compound 1430]: 4.06^[a].
Still for that read-out and setting: the value for `CCOC(=O)C(C#N)=C(NC(C)C(=O)Nc1ccc2ccccc2c1)c1sccc1C(F)(F)F` (racemic) [Compound 653] was 4.01^[a]; that for `CCOC(=O)C(C#N)=C(NC(C)c1nccs1)c1ccnc(-c2ccccc2)c1Cl` (stereo not shown) [Compound 1385] was 3.31^[a]; that for `CCOC(=O)C(C#N)=C(Nc1cccc2nsnc12)c1cccnc1Cl` [Compound 1556] was 3.17^[a].
The same measure, in the same setting: the value for `CCOC(=O)C(C#N)=C(NC(C)c1ccccn1)c1ccncc1Br` (mixture of isomers) [Compound 299] was 2.5^[a]; that for `CCOC(=O)C(C#N)=C(NC(C)C1CC1)c1cnn(C)c1Cl` (stereo not shown) [Compound 1482] was 2.98^[a]; that for `CCOC(=O)C(C#N)=C(NC(C)c1ccc(F)cc1)c1cccnc1Cl` (stereo not shown) [Compound 1149] was 3.51^[a].
Take `CCOC(=O)C(C#N)=C(NC(C)C(C)C)c1ccnc(C(F)(F)F)c1Cl` (stereo not shown) [Compound 1627]: the “Log P” value is 4.18^[a].
Regarding `CCOC(=O)C(C#N)=C(NC(C)COC)c1sccc1Br` (stereo not shown) [Compound 734], the “Log P” value was 3.21^[a].
On the same count and under the same terms, next, `CCOC(=O)C(C#N)=C(Nc1ccccc1SC)c1ncc(Cl)cc1Cl` [Compound 503]: 4.09^[a]; `CCCCCC(C)NC(=C(C#N)C(=O)OCC)c1sccc1C(F)(F)F` (racemic) [Compound 849]: 5.05^[a].
On the same count and under the same terms, the value for `CCOC(=O)C(C#N)=C(NC(C)C1CCCO1)c1sc(C)nc1C(F)(F)F` (stereo not shown) [Compound 193] was 3.29^[a]; that for `COC(=O)C(C#N)=C(NCc1ccc(F)cn1)c1sc(C)nc1C(F)(F)F` [Compound 202] was 2.67^[a]; that for `CCOC(=O)C(C#N)=C(NC(C)c1ccccn1)c1ncc(C(F)(F)F)cc1Cl` (racemic) [Compound 43] was 3.44^[a].
Still for that read-out and setting: the value for `CCOC(=O)C(C#N)=C(NC1(C(=O)OCC)CCC1)c1cccnc1Cl` [Compound 1551] was 3.17^[a]; that for `CCOC(=O)C(C#N)=C(NC(C#N)c1ccccc1Br)c1cn(C)nc1C(F)F` (stereo not shown) [Compound 1218] was 3.13^[a].
In the case of `CCOC(=O)C(C#N)=C(NC(C)CF)c1cn(C)nc1OC` (stereo not shown) [Compound 748], the “Log P” value is 2.23^[a].
Same read-out and setting: next, `CCOC(=O)C(C#N)=C(NC(C)C(C)C)c1ccnc(Cl)c1Br` (stereo not shown) [Compound 1405]: 3.92^[a]; `CCOC(=O)C(C#N)=C(NC(C)C(C)C)c1cccnc1C(F)(F)F` (stereo not shown) [Compound 970]: 3.62^[a]; `CCOC(=O)C(C#N)=C(NC(C)(C)C#Cc1ccc(C#N)cc1)c1cn(C)nc1C(F)F` [Compound 1238]: 3.69^[a].
Same read-out and setting: next, `CCOC(=O)C(C#N)=C(Nc1ccc(Cl)cc1)c1sccc1C(F)(F)F` [Compound 510]: 4.14^[a]; `C#CC(C)(C)NC(=C(C#N)C(=O)OCC)c1cc(Cl)sc1Cl` [Compound 1033]: 3.99^[a].
Same read-out and setting: the value for `COC(=O)C(C#N)=C(NC(C)C1CCCO1)c1sc(C)nc1C(F)(F)F` (mixture of isomers) [Compound 178] was 1.97^[a].

Still in this series, the particulars now being: pH 7.5.
As for `CCOC(=O)C(C#N)=C(NC(C)c1nccs1)c1cccnc1OCC` (racemic) [Compound 148], the “Log P” value amounted to 2.89.
Still for that read-out and setting: the value for `CCOC(=O)C(C#N)=C(NC(C)CCl)c1cccnc1Cl` (stereo not shown) [Compound 743] was 2.7.
Still for that read-out and setting: the value for `CCOC(=O)C(C#N)=C(NC(C)C(N)=S)c1cccnc1Cl` (stereo not shown) [Compound 708] was 1.87; that for `CCOC(=O)C(C#N)=C(NC(C)c1nccs1)c1ccc(C)nc1Cl` (stereo not shown) [Compound 24] was 2.62; that for `CC(C)C(C)NC(=C(C#N)C(=O)NC1CS(=O)(=O)C1)c1cccnc1Cl` (stereo not shown) [Compound 1469] was 2.29.
For `CCN(C)C(=O)C(C#N)=C(NC(C)C(C)C)c1cccnc1Cl` (stereo not shown) [Compound 1282], the “Log P” value came to 2.9.
